{
  "source": "patent US20220202912A1",
  "about": "“Polypeptides in Preparation of Drugs for Treatment or Prevention of Rheumatoid Arthritis” (priority 2011, published 2022)",
  "key": {"HUVECs": {"system": "HUVECs", "assay": "Western blot of protein expression in HUVECs", "format": "cell-based, human", "conditions": "0.5-8.0 μmol/L, 24 h", "protocol": "3.2 After the third generation of human umbilical vein endothelial cells (HUVECs) are cultured in a 6-well plate to more than 80% fusion, the polypeptide mPEG-SC20k-HM-3 is added to final concentrations of 0.5, 1.0, 2.0, 4.0, 8.0 μmol/L, and PBS is used as a blank control. The cells are incubated in a CO2 incubator at 37° C. for 24 h; the cells are digested with 0.25% trypsin and counted, the solution is centrifuged at 3000 rpm for 5 min, and the cells are collected.\n(§1) 3.3 A protein extract solution is added at 20 μL/1×10^5 cells, and the cells are pipetted and dispersed, and stand at 4° C. for 30 min to lyse the cells.\n(§2) 3.4 1/4 volume of 5×protein loading buffer is added, and boiling water bath is performed for 5-10 min.\n(§3) 3.5 20 μL of protein sample is taken and 10% SDS-PAGE electrophoresis is performed.\n(§4) 3.6 The protein on the gel is transferred to the PVDF membrane by using a wetting transfer method with a constant current of 100 mA for 1-2.5 h.\n(§5) 3.7 The PVDF membrane is blocked with a blocking solution at room temperature for 2 h.\n3.8 The membrane is washed for 3 times with PBST, 5 min each time. A primary antibody is added and the membrane stands at 4° C. overnight or is incubated at 37° C. for 2 h.\n3.9 The membrane is washed for 3 times with PBST, 5 min each time. A secondary antibody is added and the membrane is incubated at room temperature for more than 2 h. […]"}, "[1]": {"system": "tumor in BALB/c nude mice", "assay": "in vivo pharmacodynamics (antitumor) of PEG-modified HM-3 in BALB/c nude mice", "text": "Four different types of mPEG-ALD and mPEG-SC with different molecular weights are selected to modify the polypeptide […](named HM-3), i.e., mPEG-ALD5k, mPEG-ALD10k, mPEG-SC10k, mPEG-SC20k, and modification reaction conditions are explored and optimized."}, "AIA rat models": {"system": "AIA rat models", "assay": "adjuvant-induced arthritis (AIA) rat models", "format": "in vivo, SD rats", "conditions": "for clinical scoring / swelling of left paw / swelling of right paw: 5 times"}, "TLR-4": {"system": "TLR-4", "assay": "Western blot of TLR-4 protein in LPS-induced rat synovial cells", "format": "cell-based", "protocol": "3.1 U937 cells are added to a 6-well plate (1.5×10^5 cells/mL), PMA (25 ng/mL) is used for induction for 48 h, and the cells adhere and differentiate into macrophages. Positive drug Adalimumab (25 μg/mL, 50 μg/mL, 100 μg/mL, 200 μg/mL, 400 μg/mL), Avastin (25 μg/mL, 50 μg/mL) are added, the final concentrations of mPEG-SC20k-HM-3 are 2.25, 4.5, 9.0, 13.5, 18.0, 36 μmol/L, and isovolumetric PBS is added to the blank group and the model group. The cells are incubated in a CO2 incubator at 37° C. for 24 or 48 h. Rat synovial cells are induced with LPS for 24 h and then mPEG-SC20k-HM-3 is administrated to final concentrations of 2.25, 4.5, 9.0, 13.5, 18.0 μmol/L, and the cells are incubated in a CO2 incubator at 37° C. for 48 h.\nas §1, §2, §3, §4, §5\n3.8 The membrane is washed for 3 times with PBST, 5 min each time. […]"}, "CIA mouse models": {"system": "CIA mouse models", "assay": "collagen-induced arthritis (CIA) mouse models", "format": "in vivo, DBA/1 mice", "conditions": "for clinical scoring / swelling of joints / swelling of paws: 5 times"}, "IL-1β": {"system": "IL-1β", "assay": "IL-1β production by mouse peritoneal macrophages (LPS, ELISA)", "format": "cell-based, C57BL/6 mice", "conditions": "LPS 5 μg/mL, 48 h", "protocol": "In the test, mice are divided into […], namely a blank control group, a lipopolysaccharide (LPS) model group, a dexamethasone group, and mPEG-SC20k-HM-3 groups at different doses (0.56, 1.12, 2.25, 4.50, 9.00 μmol/L).\n(1) IL-1 production: mice are intraperitoneally injected with 1 mL of broth medium (containing 6% of starch). After three days, mouse peritoneal macrophages are taken aseptically and washed twice with RPMI 1640 medium, and the cell concentration is adjusted to 2×10^6 cells/mL. The cells are injected into a 24-well culture plate, 1 mL per well, and the cells are incubated in a cell incubator for 3 h, and vibrated once every 30 min to make the cells fully adhere. Then the cells are washed twice with culture solution to remove non-adherent cells, are cultured continuously for 48 h after administration, and are centrifuged at 1000 r for 15 min. The supernatant is collected as a sample with IL-1β to be tested. (2) Determination of IL-1 content: various solutions are prepared; tested samples and standard substances with different concentrations (100 μL/well) are added into the corresponding wells, reaction wells are sealed with plate-sealing adhesive tape, and incubation is performed at 37° C. for 90 min; the plate is washed four times; biotinylated antibody working solution (100 μL/well) is added, the reaction wells are sealed with plate-sealing adhesive tape, and incubation is performed at 37° C. for 60 min; the plate is washed four times; enzyme conjugate working solution (100 μL/well) is added, the reaction wells are sealed with plate-sealing adhesive tape, and incubation is performed at 37° C. for 30 min; the plate is washed four times; chromogenic reagent (100 μL/well) is added, and incubation is performed at 37° C. for 10-20 min in the absence of light; stop solution (100 μL/well) is added, and the OD 450 nm absorbance is measured immediately after uniform mixing (within 5 min)."}, "[2]": {"conditions": "high dose 40 mg/kg once the other day"}, "[3]": {"conditions": "low dose 10 mg/kg once the other day"}, "[4]": {"conditions": "medium dose 20 mg/kg once the other day"}},
  "note": "Where no end group is shown, it is not given here.",
  "data": [
    {"substance": "mPEG-SC20k-Ile-Val-Arg-Arg-Ala-Asp-Arg-Ala-Ala-Val-Pro-Gly-Gly-Gly-Gly-Arg-Gly-Asp ({mPEG‑SC 20k}-IVRRADRAAVPGGGGRGD) [polypeptide III, No. 3]", "values": [
      {"measurement": "expression of VEGF in HUVECs", "setting": "HUVECs", "result": "down-regulated"},
      {"measurement": "expression of integrin αν, integrin β3, MEK1, p-MEK1, PI3K, AKT1, p-AKT1, ERK1/2 and p-ERK1/2 in HUVECs", "setting": "HUVECs", "result": "down-regulated"},
      {"measurement": "antitumor effect in vivo", "setting": "[1]; BALB/c nude mice", "result": 50.23, "unit": "%"},
      {"measurement": "toxicity at an effective dose in vivo", "setting": "[1]; body weight of nude mice basically stable", "result": "very low toxicity or no toxicity"},
      {"measurement": "elimination half life in vivo", "setting": "[1]; compared with HM-3", "result": "greatly improved"},
      {"measurement": "clinical scoring", "setting": "AIA rat models; [2]", "result": "5.29 ± 3.90"},
      {"measurement": "swelling of left paw", "setting": "AIA rat models; [2]", "result": "4.40 ± 0.91", "unit": "mm"},
      {"measurement": "swelling of right paw", "setting": "AIA rat models; [2]", "result": "1.05 ± 1.31", "unit": "mm"},
      {"measurement": "clinical scoring", "setting": "AIA rat models; [3]", "result": "5.43 ± 2.15"},
      {"measurement": "swelling of left paw", "setting": "AIA rat models; [3]", "result": "4.40 ± 0.91", "unit": "mm"},
      {"measurement": "swelling of right paw", "setting": "AIA rat models; [3]", "result": "0.76 ± 1.21", "unit": "mm"},
      {"measurement": "clinical scoring", "setting": "AIA rat models; [4]", "result": "5.71 ± 2.36"},
      {"measurement": "swelling of left paw", "setting": "AIA rat models; [4]", "result": "4.48 ± 1.72", "unit": "mm"},
      {"measurement": "swelling of right paw", "setting": "AIA rat models; [4]", "result": "1.28 ± 1.27", "unit": "mm"},
      {"measurement": "therapeutic effect on adjuvant-induced arthritis in rats (conclusion)", "setting": "AIA rat models; rat, in vivo", "result": "CONCLUSION: polypeptide III has therapeutic effect on adjuvant-induced arthritis, and its effect is higher than that of polypeptide. I."},
      {"measurement": "dose with the best inhibitory effect on the expression of TLR-4 protein", "setting": "TLR-4", "result": 13.5, "unit": "µM"},
      {"measurement": "expression of TLR-4 protein in rat synovial cells", "setting": "TLR-4; with the increase of dosage", "result": "down-regulation"},
      {"measurement": "clinical scoring", "setting": "CIA mouse models; [2]", "result": "2.00 ± 2.37"},
      {"measurement": "swelling of joints", "setting": "CIA mouse models; [2]", "result": 0.07, "unit": "mm"},
      {"measurement": "swelling of paws", "setting": "CIA mouse models; [2]", "result": "0.14 ± 0.42", "unit": "mm"},
      {"measurement": "clinical scoring", "setting": "CIA mouse models; [3]", "result": "4.83 ± 2.99"},
      {"measurement": "swelling of joints", "setting": "CIA mouse models; [3]", "result": 0.23, "unit": "mm"},
      {"measurement": "swelling of paws", "setting": "CIA mouse models; [3]", "result": "0.37 ± 0.35", "unit": "mm"},
      {"measurement": "clinical scoring", "setting": "CIA mouse models; [4]", "result": "6.33 ± 4.23"},
      {"measurement": "swelling of joints", "setting": "CIA mouse models; [4]", "result": 0.12, "unit": "mm"},
      {"measurement": "swelling of paws", "setting": "CIA mouse models; [4]", "result": "0.34 ± 0.42", "unit": "mm"},
      {"measurement": "therapeutic effect on collagen-induced arthritis in mice (conclusion)", "setting": "CIA mouse models; mouse, in vivo", "result": "CONCLUSION: polypeptide III has therapeutic effect on collagen-induced arthritis in mice"},
      {"measurement": "IL-1β content", "setting": "IL-1β; 0.56 μmoL/L", "result": "89.77 ± 7.22", "unit": "pg/mL"},
      {"measurement": "Inhibition rate", "setting": "IL-1β; 0.56 μmoL/L", "result": 90.93, "unit": "%"},
      {"measurement": "IL-1β content", "setting": "IL-1β; 1.12 μmoL/L", "result": "35.17 ± 17.71", "unit": "pg/mL"},
      {"measurement": "Inhibition rate", "setting": "IL-1β; 1.12 μmoL/L", "result": 96.45, "unit": "%"},
      {"measurement": "IL-1β content", "setting": "IL-1β; 2.25 μmoL/L", "result": "43.78 ± 10.16", "unit": "pg/mL"},
      {"measurement": "Inhibition rate", "setting": "IL-1β; 2.25 μmoL/L", "result": 95.58, "unit": "%"},
      {"measurement": "IL-1β content", "setting": "IL-1β; 4.50 μmoL/L", "result": "32.04 ± 6.52", "unit": "pg/mL"},
      {"measurement": "Inhibition rate", "setting": "IL-1β; 4.50 μmoL/L", "result": 96.76, "unit": "%"},
      {"measurement": "IL-1β content", "setting": "IL-1β; 9.00 μmoL/L", "result": "104.83 ± 2.44", "unit": "pg/mL"},
      {"measurement": "Inhibition rate", "setting": "IL-1β; 9.00 μmoL/L", "result": 89.41, "unit": "%"}
    ]}
  ]
}
